From patent US10000474B2, “Histone deacetylase inhibitors and uses thereof” (MUSC FOUNDATION FOR RESEARCH DEVELOPMENT, priority 2014, dated 2018)
Counter-ions that a name gives are not always drawn.

Key:
Recombinant human HDAC2 = molecular target: T1, Recombinant human HDAC2 (Homo sapiens, UniProt Q92769); experiment: HDAC inhibitory assay, HDAC2 (Boc-Lys(Ac)-AMC substrate); assay type: biochemical; conditions: test concentration not given; average of triplicate
T1 construct: purchased BPS Biosciences
Description: (§1) The compounds of Examples 1-12 and 14-16 were evaluated for their ability to act as inhibitors of human HDAC. The compound of Example 13 was not tested. Recombinant human HDAC1, HDAC2, HDAC3/NcoR2, HDAC5, HDAC6, HDAC8, HDAC9, HDAC10 and HDAC11 were purchased from BPS Biosciences. Recombinant human HDAC4 and HDAC7 were purchased from Millipore. The substrate Boc-Lys(Ac)-AMC and Boc-Lys(Tfa)-AMC were purchased from Bachem. The substrate Ac-RHK(Ac)K(Ac)-AMC was purchased from Enzo Life Sciences. Due to the different specific activities of each isoform, different amount of enzyme was used in each isoform screening assay. In these assays, trichostatin A (TSA), suberanilohydroxamic acid and diphenylacetohydroxamic acid (DPAHA) were employed as positive controls. All determinations were carried out in triplicate, and reported values were the average of these determinations, which in no case varied by more than 5%.
Then 25 μl of the Boc-Lys(Ac)-AMC substrate (50 μM final concentration) was added and incubated at 37° C. for 30-60 min, and followed by adding 50 μl of developer (1 mg/ml trypsin and 1 μM TSA). The last step was reading the samples in a SpectraMax M5 plate reader (Molecular Devices) at an excitation wavelength of 360 nm and an emission wavelength of 460 nm.

[1] = Cell proliferation assay (MTS, cytotoxicity); assay type: cell-based; conditions: human; cell line not given (MV4-11 24 hours or MCF-7 72 hours); 1 μM to 100 μM; average of triplicate
Description: The cytotoxicity of representative compounds of the invention was determined by MTS assay, following the protocol of CellTiter 96® AQueous Non-Radioactive Cell Proliferation Assay (Promega). The cells used in this assay were MV4-11 (human, macrophage, biphenotypic B myelomonocytic leukemia) and MCF-7 (human, epithelial, adenocarcinoma). […] The MV-4-11 cells were incubated with the representative compounds for 24 hours at 37° C. in 5% CO2 while the MCF-7 cells were first seeded on the 96-well plate and were allowed to attach for 1 day and then were incubated with different concentrations of the representative compound for 72 hours at 37° C. in 5% CO2. After 24 or 72 hours 20 μl of MTS reagent solution was added into each well and the cells were incubated for another 4 hours at 37° C. under 5% CO2 environment. The absorbance was measured at 490 nm in a SpectraMax M5 plate reader (Molecular Devices) to determine the cell viability. The absorbance was directly proportional to the amount of viable cells. All determinations were carried out in triplicate, and reported values in Table 2 below were the average of these determinations, which in no case varied by more than 5%.

Recombinant human HDAC5 = molecular target: T2, Recombinant human HDAC5 (Homo sapiens, UniProt Q9UQL6); experiment: HDAC inhibitory assay, HDAC5 (Boc-Lys(Tfa)-AMC substrate); assay type: biochemical; conditions: test concentration not given; average of triplicate
T2 construct: purchased BPS Biosciences
Description: as §1
For evaluating the inhibition of class IIa HDACs (HDAC4, HDAC5, HDAC7 and HDAC9) and class IV HDAC (HDAC11), 10 μl of test samples were first incubated with 1 ng HDAC4 (specific activity=15400 pmol/min/μg), 5 ng HDAC5 (specific activity=2521 pmol/min/μg), 1 ng HDAC7 (specific activity=26340 pmol/min/μg), 5 ng HDAC9 (specific activity=3000 pmol/min/μg), and 500 ng HDAC11 (specific activity=1.8 pmol/min/μg) respectively. Then 25 μl of the Boc-Lys(Tfa)-AMC substrate (50 μM final concentration) was added and incubated at 37° C. for 30-60 min, and followed by adding 50 μl of developer. The last step was to read the samples in a SpectraMax M5 plate reader (Molecular Devices) at an excitation wavelength of 360 nm and an emission wavelength of 460 nm.

T2 sequence (Q9UQL6 whole entry): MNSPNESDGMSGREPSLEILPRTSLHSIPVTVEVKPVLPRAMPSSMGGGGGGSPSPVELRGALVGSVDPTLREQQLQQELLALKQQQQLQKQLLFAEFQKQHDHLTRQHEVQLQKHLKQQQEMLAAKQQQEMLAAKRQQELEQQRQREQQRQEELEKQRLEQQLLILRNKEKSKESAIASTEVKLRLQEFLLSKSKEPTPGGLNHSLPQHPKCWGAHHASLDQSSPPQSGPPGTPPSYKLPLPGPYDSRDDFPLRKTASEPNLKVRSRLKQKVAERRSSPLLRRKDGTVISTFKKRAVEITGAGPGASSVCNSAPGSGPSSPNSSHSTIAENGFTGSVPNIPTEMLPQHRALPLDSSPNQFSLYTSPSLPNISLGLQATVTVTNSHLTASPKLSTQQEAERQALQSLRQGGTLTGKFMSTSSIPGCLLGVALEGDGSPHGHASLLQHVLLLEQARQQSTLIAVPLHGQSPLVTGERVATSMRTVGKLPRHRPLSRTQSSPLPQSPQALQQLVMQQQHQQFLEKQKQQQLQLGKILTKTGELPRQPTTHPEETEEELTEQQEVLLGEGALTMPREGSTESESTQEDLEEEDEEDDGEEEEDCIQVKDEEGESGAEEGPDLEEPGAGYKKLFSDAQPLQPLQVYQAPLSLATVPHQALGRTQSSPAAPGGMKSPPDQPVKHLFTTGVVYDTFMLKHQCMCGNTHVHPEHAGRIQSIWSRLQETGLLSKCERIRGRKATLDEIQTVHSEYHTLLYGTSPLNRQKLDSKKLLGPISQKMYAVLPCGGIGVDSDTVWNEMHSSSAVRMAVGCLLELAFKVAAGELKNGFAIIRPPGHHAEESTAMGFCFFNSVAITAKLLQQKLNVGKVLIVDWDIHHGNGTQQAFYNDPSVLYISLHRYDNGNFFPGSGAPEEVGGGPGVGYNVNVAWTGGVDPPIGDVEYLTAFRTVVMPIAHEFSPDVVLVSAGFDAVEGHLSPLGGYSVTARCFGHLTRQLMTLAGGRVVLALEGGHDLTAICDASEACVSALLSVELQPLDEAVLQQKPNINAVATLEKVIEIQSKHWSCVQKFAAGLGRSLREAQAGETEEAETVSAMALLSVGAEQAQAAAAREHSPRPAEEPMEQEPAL
T1 sequence (Q92769 whole entry): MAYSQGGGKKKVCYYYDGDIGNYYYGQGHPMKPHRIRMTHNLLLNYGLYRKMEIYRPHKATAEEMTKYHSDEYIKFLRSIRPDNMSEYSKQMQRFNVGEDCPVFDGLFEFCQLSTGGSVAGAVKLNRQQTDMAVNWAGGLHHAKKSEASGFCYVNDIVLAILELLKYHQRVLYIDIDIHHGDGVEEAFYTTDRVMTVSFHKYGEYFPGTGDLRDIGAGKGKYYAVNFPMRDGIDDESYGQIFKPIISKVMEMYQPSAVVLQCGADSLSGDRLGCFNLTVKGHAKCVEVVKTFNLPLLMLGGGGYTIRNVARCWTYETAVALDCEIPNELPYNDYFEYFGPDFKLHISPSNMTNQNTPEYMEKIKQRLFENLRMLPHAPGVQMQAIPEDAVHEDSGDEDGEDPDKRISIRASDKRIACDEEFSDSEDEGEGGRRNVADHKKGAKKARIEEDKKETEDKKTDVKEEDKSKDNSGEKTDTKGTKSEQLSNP

Row | Compound | HDAC 2 inhibitory activity (Recombinant human HDAC2) [%] | IC50 [1] [µM] | melting point [°C] | HDAC 5 inhibitory activity (Recombinant human HDAC5) [%]
1 | O=C(NCC(c1ccccc1)c1ccccc1)c1coc(-c2ccccc2O)n1 [Example 3, N-(2,2-Diphenylethyl)-2-(2-hydroxyphenyl)oxazole-4-carboxamide] | 34.8 | 40 | 206 to 208 | 0
2 | O=C(NCc1ccc(-c2ccccc2)cc1)c1coc(-c2ccccc2O)n1 [Example 6, N-([1,1′-Biphenyl]-4-ylmethyl)-2-(2-hydroxyphenyl)oxazole-4-carboxamide] | 52.2 | > 100 | 220 to 221 | 9.2
3 | O=C(Nc1ccccc1)c1ccc(CNC(=O)c2coc(-c3ccccc3O)n2)cc1 [Example 15, 2-(2-Hydroxyphenyl)-N-(4-(phenylcarbamoyl)benzyl)oxazole-4-carboxamide] | 41.3 | – | – | 0
4 | O=C(NCCCCNCCC(c1ccccc1)c1ccccc1)c1coc(-c2ccccc2O)n1 [Example 12, N-(4-((3,3-Diphenylpropyl)amino)butyl)-2-(2-hydroxyphenyl)oxazole-4-carboxamide hydrochloride] | 19.7 | – | – | 6.9
5 | O=C(NCCCCNC(=O)C(c1ccccc1)c1ccccc1)c1coc(-c2ccccc2O)n1 [Example 10, N-(4-(2,2-Diphenylacetamido)butyl)-2-(2-hydroxyphenyl)oxazole-4-carboxamide] | 0 | – | – | 1.4
6 | O=C(NCCCCNC(=S)NCCC(c1ccccc1)c1ccccc1)c1coc(-c2ccccc2O)n1 [Example 11, N-(4-(3-(3,3-Diphenylpropyl)thioureido)butyl)-2-(2-hydroxyphenyl)oxazole-4-carboxamide] | 1.3 | – | – | 43.5
7 | O=C(NC(c1ccccc1)c1ccccc1)c1coc(-c2ccccc2O)n1 [Example 2, N-Benzhydryl-2-(2-hydroxyphenyl)oxazole-4-carboxamide] | 54.1 | 7.6 | 226 to 227 | 14.9
8 | O=C(Nc1ccccc1)c1coc(-c2ccccc2O)n1 [Example 1, 2-(2-Hydroxyphenyl)-N-phenyloxazole-4-carboxamide] | 29.5 | 25 | 173 to 174 | 9.3
9 | O=C(NCCC(c1ccccc1)c1ccccc1)c1coc(-c2ccccc2O)n1 [Example 4, N-(3,3-Diphenylpropyl)-2-(2-hydroxyphenyl)oxazole-4-carboxamide] | 28.7 | – | – | 11.3
10 | O=C(NCCc1c[nH]c2ccccc12)c1coc(-c2ccccc2O)n1 [Example 8, N-(2-(1H-Indol-3-yl)ethyl)-2-(2-hydroxyphenyl)oxazole-4-carboxamide] | 36.0 | – | – | 0
11 | O=C(Nc1ccc(-c2ccccc2)cc1)c1coc(-c2ccccc2O)n1 [Example 5, N-([1,1′-Biphenyl]-4-yl)-2-(2-hydroxyphenyl)oxazole-4-carboxamide] | 31.9 | – | 218 to 219 | 0
12 | O=C(CNC(=O)c1coc(-c2ccccc2O)n1)Nc1ccccc1 [Example 16, 2-(2-Hydroxyphenyl)-N-(2-oxo-2-(phenylamino)ethyl)oxazole-4-carboxamide] | 32.0 | – | – | 12.5
13 | O=C(NCc1cccc2ccccc12)c1coc(-c2ccccc2O)n1 [Example 7, 2-(2-Hydroxyphenyl)-N-(naphthalen-1-ylmethyl)oxazole-4-carboxamide] | 45.2 | – | – | 3.2
14 | O=C(NCCCCN1C(=O)c2ccccc2C1=O)c1coc(-c2ccccc2O)n1 [Example 9, N-(4-(1,3-Dioxoisoindolin-2-yl)butyl)-2-(2-hydroxyphenyl)oxazole-4-carboxamide] | 25.4 | – | – | 10.3
15 | O=C(O)c1ccc(CNC(=O)c2coc(-c3ccccc3O)n2)cc1 [Example 14, 4-((2-(2-Hydroxyphenyl)oxazole-4-carboxamido)methyl)benzoic acid] | 56.5 | – | 248 to 251 | 12.6
